Patent US20230051589A1, “COMPOUNDS AND COMPOSITIONS FOR TREATING CONDITIONS ASSOCIATED WITH NLRP ACTIVITY” (Novartis AG, priority 2018, published 2023)

The compounds below were run on IL-1β production in PMA-differentiated THP-1 cells (assay: IL-1β production in PMA-differentiated THP-1 cells stimulated with gramicidin (hTHP-1 assay, 2% fetal bovine serum; Procedures 1-3)). Settings: Homo sapiens, THP-1, Table B1; hTHP-1 assay containing 2% fetal bovine serum, gramicidin stimulation, IL-1β readout; read-out: hTHP-1 IC50 (average).
Assay type: cell-based, human
In short: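 PMA-primed THP-1 cells (20 ng/ml PMA, 16-18 h) in RPMI with 2% FBS were pre-incubated with compounds for 1 h, from 100 μM downward in 3-fold steps (0.37% DMSO final), then stimulated with 5 μM gramicidin for 2 h. IL-1β in the supernatant was quantified by HTRF.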

Row | IC50 [nM] | Compound
1 | […] | CC(C)(O)c1ncc(S(N)(=O)=NC(=O)Nc2c3c(c(F)c4c2CCC4)CCC3)s1 (stereo not drawn) [Example 44, N′-(8-fluoro-1,2,3,5,6,7-hexahydro-s-indacen-4-ylcarbamoyl)-2-(2-hydroxypropan-2-yl)thiazole-5-sulfonimidamide]

Same assay, conditions: Homo sapiens, THP-1, Table B3; hTHP-1 assay containing 2% fetal bovine serum, gramicidin stimulation, IL-1β readout; read-out: hTHP-1 IC50

Row | IC50 [nM] | Compound
2 | 40 to 200 | CNCc1csc(S(N)(=O)=NC(=O)Nc2c3c(cc4c2CC4)CCC3)c1 (stereo not drawn) [Example 722, 4-((Methylamino)methyl)-N′-((2,4,5,6-tetrahydro-1H-cyclobuta[f]inden-3-yl)carbamoyl)thiophene-2-sulfonimidamide]
3 | 200 to 1000 | C[C@@](O)(CO)c1ncc(S(N)(=O)=NC(=O)Nc2c3c(cc4c2C(=O)CC4)CCC3)s1 (stereo partly drawn) [Example 743, 2-((R)-1,2-dihydroxypropan-2-yl)-N′-((3-oxo-1,2,3,5,6,7-hexahydro-s-indacen-4-yl)carbamoyl)thiazole-5-sulfonimidamide]
4 | 1000 to 5000 | COC1CCc2c(csc2S(N)(=O)=NC(=O)Nc2c3c(cc4c2CCC4)CCC3)C1 (stereo not drawn) [Example 774, N′-((1,2,3,5,6,7-hexahydro-s-indacen-4-yl)carbamoyl)-5-methoxy-4,5,6,7-tetrahydrobenzo[c]thiophene-1-sulfonimidamide]
5 | 40 to 200 | CNCc1csc(S(N)(=O)=NC(=O)Nc2c3c(cc4c2CCC4)CCC3)c1F (stereo not drawn) [Example 779, 3-Fluoro-N′-((1,2,3,5,6,7-hexahydro-s-indacen-4-yl)carbamoyl)-4-((methylamino)methyl)thiophene-2-sulfonimidamide]
6 | 200 to 1000 | CCn1ccc(S(N)(=O)=NC(=O)Nc2c3c(cc4c2CCC4)CCC3)n1 (stereo not drawn) [Example 736, 1-Ethyl-N′-((1,2,3,5,6,7-hexahydro-s-indacen-4-yl)carbamoyl)-1H-pyrazole-3-sulfonimidamide]

Same assay, conditions: Homo sapiens, THP-1, hTHP-1 assay containing 2% fetal bovine serum, Table B2, class symbols; read-out: IC50

Row | IC50 [nM] | Compound
7 | 1000 to 5000 | CC(C)(O)c1ccnc([S@](N)(=O)=NC(=O)Nc2c3c(c(C#N)c4c2CCC4)CCC3)c1 [Compound 818a]
8 | 5000 to 30000 | NS(=O)(=NC(=O)Nc1c2c(cc3c1CCC3)CCC2)c1ccc(-c2ccccc2)s1 (stereo not drawn) [Compound 917]
9 | 40 to 200 | CNCc1csc(S(N)(=O)=NC(=O)Nc2c3c(cc4c2CCC4)CCC3)c1 (stereo not drawn) [compound 672, N′-((1,2,3,5,6,7-hexahydro-s-indacen-4-yl)carbamoyl)-4-((methylamino)methyl)thiophene-2-sulfonimidamide]
10 | 200 to 1000 | CC(C)c1cc(S(N)(=O)=NC(=O)Nc2c3c(cc4c2CCC4)CCC3)c(F)cn1 (stereo not drawn) [Example 478, 5-Fluoro-N′-((1,2,3,5,6,7-hexahydro-s-indacen-4-yl)carbamoyl)-2-isopropylpyridine-4-sulfonimidamide]
11 | 1000 to 5000 | CCn1ccc([S@@](N)(=O)=NC(=O)Nc2c3c(cc4c2CCC4)CCC3)n1 [Compound 904b]
12 | 200 to 1000 | CC(C)n1nc(S(N)(=O)=NC(=O)Nc2c3c(c(C#N)c4c2CCC4)CCC3)cc1CO (stereo not drawn) [Example 442, N′-((8-cyano-1,2,3,5,6,7-hexahydro-s-indacen-4-yl)carbamoyl)-5-(hydroxymethyl)-1-isopropyl-1H-pyrazole-3-sulfonimidamide]

Same assay, conditions: Homo sapiens, THP-1, hTHP-1 assay containing 2% fetal bovine serum, Table B2, given as bound; read-out: IC50

Row | IC50 [nM] | Compound
13 | > 30000 | CC(C)(O)c1ccc(S(N)(=O)=NC(=O)Nc2cc3c(c4c2CCC4)CCC3)cn1 (single isomer, unassigned) [Example 590, (S) or (R)-N′-((1,2,3,6,7,8-hexahydro-as-indacen-4-yl)carbamoyl)-6-(2-hydroxypropan-2-yl)pyridine-3-sulfonimidamide]

Same assay, conditions: Table B1; hTHP-1 assay containing 2% fetal bovine serum, gramicidin stimulation, IL-1β readout; read-out: hTHP-1 IC50 (average)

Row | IC50 [nM] | Compound
14 | 8 to 40 | CC(C)(O)c1cc(F)c(S(N)(=O)=NC(=O)Nc2c3c(cc4c2CCC4)CCC3)s1 (single isomer, unassigned) [Example 385, (R) or (S)-3-fluoro-N′-((1,2,3,5,6,7-hexahydro-s-indacen-4-yl)carbamoyl)-5-(2-hydroxypropan-2-yl)thiophene-2-sulfonimid-amide]
15 | 40 to 200 | COC(C)(C)c1ncc(S(N)(=O)=NC(=O)Nc2c3c(cc4c2CCC4)CCC3)s1 (single isomer, unassigned) [Example 388, (R) or (S)-N′-((1,2,3,5,6,7-hexahydro-s-indacen-4-yl)carbamoyl)-2-(2-meth-oxypropan-2-yl)thiazole-5-sulfonimidamide]

Same assay, conditions: Table B3; hTHP-1 assay containing 2% fetal bovine serum, gramicidin stimulation, IL-1β readout; read-out: hTHP-1 IC50

Row | IC50 [nM] | Compound
16 | 8 to 40 | COCCOC[C@@](C)(O)c1ncc(S(N)(=O)=NC(=O)Nc2c3c(cc4c2CCC4)CCC3)s1 (single isomer, unassigned) [Example 794, (R) or (S)-N′-((1,2,3,5,6,7-hexahydro-s-indacen-4-yl)carbamoyl)-2-((R)-2-hydroxy-1-(2-methoxyethoxy)propan-2-yl)thiazole-5-sulfonimidamide]
17 | 1000 to 5000 | CC(C)(O)c1nc(CO)c(S(N)(=O)=NC(=O)Nc2c3c(cc4c2C(=O)CC4)CCC3)s1 (single isomer, unassigned) [Example 808, (R) or (S)-4-(hydroxymethyl)-2-(2-hydroxypropan-2-yl)-N′-((3-oxo-1,2,3,5,6,7-hexahydro-s-indacen-4-yl)carbamoyl)thiazole-5-sulfonimidamide]
18 | 40 to 200 | NS(=O)(=NC(=O)Nc1c2c(cc3c1CC3)CCC2)c1sc(CN2CCC2)cc1F (single isomer, unassigned) [Example 843, (R) or (S)-5-(azetidin-1-ylmethyl)-3-fluoro-N′-((2,4,5,6-tetrahydro-1H-cyclobuta[f]inden-3-yl)carbamoyl)thiophene-2-sulfonimidamide]
19 | 200 to 1000 | COC1CCc2c(csc2S(N)(=O)=NC(=O)Nc2c3c(cc4c2CCC4)CCC3)C1 (single isomer, unassigned) [Example 851, (R, R) or (S, R)-N′-((1,2,3,5,6,7-hexahydro-s-indacen-4-yl)carbamoyl)-5-methoxy-4,5,6,7-tetrahydrobenzo[c]thiophene-1-sulfonimidamide]
20 | 1000 to 5000 | COC1CCc2c(csc2S(N)(=O)=NC(=O)Nc2c3c(cc4c2CCC4)CCC3)C1 (single isomer, unassigned) [Example 852, (S, R) or (R, R)-N′-((1,2,3,5,6,7-hexahydro-s-indacen-4-yl)carbamoyl)-5-methoxy-4,5,6,7-tetrahydrobenzo[c]thiophene-1-sulfonimidamide]
21 | 200 to 1000 | CNS(=O)(=O)c1cccc(S(N)(=O)=NC(=O)Nc2c3c(cc4c2CCC4)CCC3)c1 (single isomer, unassigned) [Example 791, (R) or (S)-3-(N′-((1,2,3,5,6,7-hexahydro-5-indacen-4-yl)carbamoyl)sulfamidimidoyl)-N-methylbenzenesulfonamide]

Same assay, conditions: hTHP-1 assay containing 2% fetal bovine serum, Table B2, class symbols; read-out: IC50

Row | IC50 [nM] | Compound
22 | 1000 to 5000 | (S)- and (R)-3-Fluoro-5-((methylamino)methyl)-N′-((2,4,5,6-tetrahydro-1H-cyclobuta[f]inden-3-yl)carbamoyl)thiophene-2-sulfonimidamide [Example 671]
23 | 5000 to 30000 | CN(C)Cc1ccc(S(N)(=O)=NC(=O)Nc2c3c(cc4c2CC4)CC3)cc1 (single isomer, unassigned) [Example 583, (S) or (R)-4-((dimethylamino)methyl)-N′-(tricyclo[6.2.0.03,6]deca-1,3(6),7-trien-2-ylcarbamoyl) benzenesulfonimidamide]

Same assay, conditions: hTHP-1 assay containing 2% fetal bovine serum, Table B2, given as bound; read-out: IC50

Row | IC50 [nM] | Compound
24 | > 30000 | CC(C)Cc1ccc(S(N)(=O)=NC(=O)Nc2c3c(cc4c2CCC4)CCC3)cc1 (single isomer, unassigned) [Example 619, (R) or (S)-N′-((1,2,3,5,6,7-hexahydro-s-indacen-4-yl)carbamoyl)-4-isobutylbenzene-sulfonimidamide]
